Values quoted from earlier work, collected in PubChem BioAssay AID1259409 (Chemical Carcinogenesis Research Information System (CCRIS), 2018).

System: rodent chemically induced tumor inhibition, incidence and multiplicity
Test: CCRIS tumor inhibitor studies
Conditions: Route [Inhibitor]: ORAL

**Q.** For `O=C1O[C@H]([C@@H](O)CO)C(O)=C1O`, which “tumour outcome (control, treated, inhibition, significance)” value (Carcinogen: 1,2-DIMETHYLHYDRAZINE DICHLORIDE, 306-37-6, Dose [Inhibitor]: 0, 0.3% SOLUTION IN DRINKING WATER BEGINNING 1 WK POST CARCINOGEN TREATMENT AND AND CONTINUING FOR DURATION OF STUDY (ST, Species: MOUSE, Strain/Sex: CBA/FEMALE, Target Tissue: Type of Lesion: UTERUS: SARCOMA, Dose [Carcinogen]: 8 MG/KG 1/WK FOR 8 WK, Promoter: ESTRADIOL DIPROPIONATE, 133-38-2) is on record?
**A.** 25/40 (63%), 14/40 (35%), 44%, p<0.001

**Q.** And the “tumour outcome (control, treated, inhibition, significance)” value (Carcinogen: 1,2-DIMETHYLHYDRAZINE DICHLORIDE, 306-37-6, Dose [Inhibitor]: 0, 0.3% SOLUTION IN DRINKING WATER BEGINNING 1 WK POST CARCINOGEN TREATMENT AND CONTINUING FOR DURATION OF STUDY (STUDY, Species: MOUSE, Strain/Sex: CBA/FEMALE, Target Tissue: Type of Lesion: UTERUS: SARCOMA, Dose [Carcinogen]: 8 MG/KG 1/WK FOR 8 WK, Promoter: ESTRADIOL DIPROPIONATE, 133-38-2)?
**A.** 25/40 (63%), 24/32 (75%), -19%, not calculated

**Q.** And the “tumour outcome (control, treated, inhibition, significance)” value (Carcinogen: 1,2-DIMETHYLHYDRAZINE-DIHYDROCHLORIDE, 306-37-6, Dose [Inhibitor]: 25 MG/KG/D IN DIET STARTING AT TIME OF CARCINOGEN TREATMENT AND CONTINUING FOR 35 WK (STUDY DURATION: 35 WK), Species: MOUSE, Strain/Sex: CF-1/FEMALE, Target Tissue: Type of Lesion: LARGE BOWEL: GLANDULAR TUMORS, Dose [Carcinogen]: 20 MG/KG 1/WK FOR 24 WK, Promoter: NONE USED)?
**A.** 18/20 (90%), 19/22 (86%), 4%, not significant

**Q.** And the “tumour outcome (control, treated, inhibition, significance)” value (Carcinogen: 1,2-DIMETHYLHYDRAZINE-DIHYDROCHLORIDE, 306-37-6, Dose [Inhibitor]: 50 MG/KG/D IN DIET STARTING AT TIME OF CARCINOGEN TREATMENT AND CONTINUING FOR 35 WK (STUDY DURATION: 35 WK), Species: MOUSE, Strain/Sex: CF-1/FEMALE, Target Tissue: Type of Lesion: LARGE BOWEL: GLANDULAR TUMORS, Dose [Carcinogen]: 20 MG/KG, 1/WK FOR 24 WK, Promoter: NONE USED)?
**A.** 18/20 (90%), 20/20 (100%), -11%, not significant

**Q.** What about the “tumour outcome (control, treated, inhibition, significance)” value (Carcinogen: 1,2-DIMETHYLHYDRAZINE-DIHYDROCHLORIDE, 306-37-6, Dose [Inhibitor]: 100 MG/KG/DAY IN DIET STARTING AT TIME OF CARCINOGEN TREATMENT AND CONTINUING FOR 35 WK (STUDY DURATION: 35 WK), Species: MOUSE, Strain/Sex: CF-1/FEMALE, Target Tissue: Type of Lesion: LARGE BOWEL: GLANDULAR TUMORS, Dose [Carcinogen]: 20 MG/KG 1/WK FOR 24 WK, Promoter: NONE USED) of the same compound?
**A.** 18/20 (90%), 16/23 (70%), 22%, not significant

**Q.** What about the “tumour outcome (control, treated, inhibition, significance)” value (Carcinogen: 1,2-DIMETHYLHYDRAZINE-DIHYDROCHLORIDE, 306-37-6, Dose [Inhibitor]: 200 MG/KG/DAY IN DIET STARTING AT TIME OF CARCINOGEN TREATMENT AND CONTINUING FOR 35 WK (STUDY DURATION: 35 WK), Species: MOUSE, Strain/Sex: CF-1/FEMALE, Target Tissue: Type of Lesion: LARGE BOWEL: GLANDULAR TUMORS, Dose [Carcinogen]: 20 MG/KG 1/WK FOR 24 WK, Promoter: NONE USED) of the same compound?
**A.** 18/20 (90%), 19/23 (83%), 8%, not significant

**Q.** And the “tumour outcome (control, treated, inhibition, significance)” value (Carcinogen: 1,2-DIMETHYLHYDRAZINE, 540-73-8, Dose [Inhibitor]: 0, 0.02% IN DIET FOR 14 WK BEGINNING 3 D PRIOR TO CARCINOGEN TREATMENT (STUDY DURATION: 26 WK), Species: RAT, Strain/Sex: SPRAGUE-DAWLEY/MALE, Target Tissue: Type of Lesion: INTESTINE: CARCINOMA, Dose [Carcinogen]: 20 MG/KG BW 1/WK FOR 12 WK, Promoter: NONE USED)?
**A.** 23/28 (82%), 12/18 (67%), 18%, not significant

**Q.** What about the “tumour outcome (control, treated, inhibition, significance)” value (Carcinogen: 1,2-DIMETHYLHYDRAZINE, 540-73-8, Dose [Inhibitor]: 0, 5% IN DIET BEGINNING 1 WK POST LAST CARCINOGEN DOSE AND CONTINUING FOR 36 WK (STUDY DURATION: 40 WK), Species: RAT, Strain/Sex: F344/MALE, Target Tissue: Type of Lesion: COLON: ADENOMA, Dose [Carcinogen]: 20 MG/KG 1/WK FOR 4 WK, Promoter: NONE USED) of the same compound?
**A.** 1/20 (5%), 6/20 (30%), -500%, p<0.05

**Q.** What about the “tumour outcome (control, treated, inhibition, significance)” value (Carcinogen: 1,2-DIMETHYLHYDRAZINE, 540-73-8, Dose [Inhibitor]: 0, 5% IN DIET BEGINNING 1 WK POST LAST CARCINOGEN DOSE AND CONTINUING FOR 36 WK (STUDY DURATION: 40 WK), Species: RAT, Strain/Sex: F344/MALE, Target Tissue: Type of Lesion: COLON: CARCINOMA, Dose [Carcinogen]: 20 MG/KG 1/WK FOR 4 WK, Promoter: NONE USED) of the same compound?
**A.** 6/20 (30%), 7/20 (35%), -17%, not calculated

**Q.** What about the “tumour outcome (control, treated, inhibition, significance)” value (Carcinogen: 1,2-DIMETHYLHYDRAZINE, 540-73-8, Dose [Inhibitor]: 0, 10 G/L IN DRINKING WATER FOR DURATION OF STUDY BEGINNING 7 D PRIOR TO CARCINOGEN TREATMENT (STUDY DURATION: 8 MO), Species: RAT, Strain/Sex: BD6/MALE, Target Tissue: Type of Lesion: INTESTINE: TUMOR, Dose [Carcinogen]: 20 MG/KG BW 1/WK FOR 20 WK, Promoter: NONE USED) of the same compound?
**A.** 100%, 100%, 0%, not significant

**Q.** And the “tumour outcome (control, treated, inhibition, significance)” value (Carcinogen: 1,2-DIMETHYLHYDRAZINE, 540-73-8, Dose [Inhibitor]: 0.25% IN 20% FAT DIET DAILY STARTING 2 WK BEFORE CARCINOGEN TREATMENT AND CONTINUING FOR DURATION OF STUDY (STUDY DURATI, Species: RAT, Strain/Sex: F344/FEMALE, Target Tissue: Type of Lesion: COLON: ADENOMA, ADENOCARCINOMA, Dose [Carcinogen]: 150 MG/KG BW IN 0.9% SALINE ADJUSTED TO PH 6.8 ONCE, Promoter: NONE USED)?
**A.** 26%, 0%, 100%, p<0.05

**Q.** And the “tumour outcome (control, treated, inhibition, significance)” value (Carcinogen: 1,2-DIMETHYLHYDRAZINE, 540-73-8, Dose [Inhibitor]: 0.25% IN 20% FAT DIET DAILY STARTING 2 WK BEFORE CARCINOGEN TREATMENT AND CONTINUING FOR DURATION OF STUDY (STUDY DURATI, Species: RAT, Strain/Sex: F344/FEMALE, Target Tissue: Type of Lesion: KIDNEY: NEPHROBLASTOMA, ADENOCARCINOMA, Dose [Carcinogen]: 150 MG/KG BW IN 0.9% SALINE ADJUSTED TO PH 6.8 ONCE, Promoter: NONE USED)?
**A.** 22%, 4%, 82%, p<0.05

**Q.** What about the “tumour outcome (control, treated, inhibition, significance)” value (Carcinogen: 1,2-DIMETHYLHYDRAZINE, 540-73-8, Dose [Inhibitor]: 0.3% IN DRINKING WATER BEGINNING AFTER LAST CARCINOGEN DOSE AND CONTINUING FOR DURATION OF STUDY (STUDY DURATION: 55 WK), Species: MOUSE, Strain/Sex: CBA/FEMALE, Target Tissue: Type of Lesion: UTERUS (ENDOMETRIUM): STROMAL SARCOMA, Dose [Carcinogen]: 8 MG/KG BW IN WATER 1/WK FOR 8 WK, Promoter: ESTRADIOL PROPIONATE, 113-38-2) of the same compound?
**A.** 13/40 (33%), 13/30 (43%), -33%, not calculated
